# Measurements as given in patent US12479840B2, “HMG-CoA reductase degradation inducing compound” (Uppthera, priority 2020, dated 2025).
# Biological target: T1, HMG-CoA reductase (Homo sapiens, UniProt P04035)
# T1 construct: endogenous in cells; host or cells: HepG2 (Korea Cell Line Bank)
# T1 sequence (P04035 1-888): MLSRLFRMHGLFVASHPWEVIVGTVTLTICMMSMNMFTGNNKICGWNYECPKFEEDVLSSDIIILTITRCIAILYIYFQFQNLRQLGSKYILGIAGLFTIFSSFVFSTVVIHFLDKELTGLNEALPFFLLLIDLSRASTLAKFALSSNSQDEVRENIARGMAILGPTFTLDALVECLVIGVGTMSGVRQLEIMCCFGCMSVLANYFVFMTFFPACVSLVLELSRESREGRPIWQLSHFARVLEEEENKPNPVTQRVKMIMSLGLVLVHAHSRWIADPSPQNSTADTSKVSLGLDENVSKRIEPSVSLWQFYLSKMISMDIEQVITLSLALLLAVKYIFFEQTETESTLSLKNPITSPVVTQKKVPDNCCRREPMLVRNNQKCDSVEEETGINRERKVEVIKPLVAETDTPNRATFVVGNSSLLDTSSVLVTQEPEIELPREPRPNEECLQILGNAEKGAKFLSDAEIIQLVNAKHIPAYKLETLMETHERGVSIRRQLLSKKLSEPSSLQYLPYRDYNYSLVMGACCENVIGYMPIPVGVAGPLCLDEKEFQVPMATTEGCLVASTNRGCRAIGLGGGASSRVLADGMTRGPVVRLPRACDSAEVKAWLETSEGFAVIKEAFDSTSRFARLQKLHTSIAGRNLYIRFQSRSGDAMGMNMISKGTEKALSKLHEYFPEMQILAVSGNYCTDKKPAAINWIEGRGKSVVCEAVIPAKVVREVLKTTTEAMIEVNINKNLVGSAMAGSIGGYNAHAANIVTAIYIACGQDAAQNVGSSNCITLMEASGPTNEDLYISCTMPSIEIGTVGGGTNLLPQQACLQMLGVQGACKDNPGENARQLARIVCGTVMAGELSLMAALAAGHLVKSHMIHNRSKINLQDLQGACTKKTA
# Test: HMG-CoA reductase (HMGCR) degradation in HepG2 cells by western blotting
# Assay type: cell-based
# Settings: treated for 18 hours, ratio of HMG-CoA reductase to GAPDH, read-out: DC50
# Method in brief: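 HepG2 cells (passage P105–P110) treated 18 hours with compounds in 10-point three-fold dilutions from 3 μM. RIPA lysates (15 μg protein, BCA-quantified) run on SDS-PAGE and immunoblotted for HMGCR (1:500) with GAPDH (1:20000) as loading control, primary antibodies 16 hours at 4° C.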
row,Compound,DC50
1,"C[C@H]1C=C2C=C[C@H](C)[C@H](CC[C@@H]3C[C@@H](O)CC(=O)O3)[C@H]2[C@@H](OC(=O)NCCOCCOCCOCCNc2ccccc2)C1 [Compound 39, (1S,3R,7S,8S,8aR)-8-(2-((2R,4R)-4-hydroxy-6-oxotetrahydro-2H-pyran-2-yl)ethyl)-3,7-dimethyl-1,2,3,7,8,8a-hexahydronaphthalen-1-yl (2-(2-(2-(2-(phenylamino)ethoxy)ethoxy)ethoxy)ethyl)carbamate]",> 500 nM
2,"C[C@H]1C=C2C=C[C@H](C)[C@H](CC[C@@H]3C[C@@H](O)CC(=O)O3)[C@H]2[C@@H](OC(=O)NCCOCCOCCNc2cccc3c2C(=O)N(C2CCC(=O)NC2=O)C3=O)C1 (stereo partly drawn) [Compound 40, (1S,3R,7S,8S,8aR)-8-(2-((2R,4R)-4-hydroxy-6-oxotetrahydro-2H-pyran-2-yl)ethyl)-3,7-dimethyl-1,2,3,7,8,8a-hexahydronaphthalen-1-yl (2-(2-(2-((2-(2,6-dioxopiperidin-3-yl)-1,3-dioxoisoindolin-4-yl)amino)ethoxy)ethoxy)ethyl)carbamate]",< 50 nM
3,"C[C@H]1C=C2C=C[C@H](C)[C@H](CC[C@@H]3C[C@@H](O)CC(=O)O3)[C@H]2[C@@H](OC(=O)NCCOCCOCCOCCNc2cccc3c2C(=O)N(C2CCC(=O)NC2=O)C3=O)C1 (stereo partly drawn) [Compound 41, (1S,3R,7S,8S,8aR)-8-(2-((2R,4R)-4-hydroxy-6-oxotetrahydro-2H-pyran-2-yl)ethyl)-3,7-dimethyl-1,2,3,7,8,8a-hexahydronaphthalen-1-yl (2-(2-(2-(2-((2-(2,6-dioxopiperidin-3-yl)-1,3-dioxoisoindolin-4-yl)amino)ethoxy)ethoxy)ethoxy)ethyl)carbamate]",< 50 nM
4,"C[C@H]1C=C2C=C[C@H](C)[C@H](CC[C@@H]3C[C@@H](O)CC(=O)O3)[C@H]2[C@@H](OC(=O)NCCOCCOCCOCCOCCNc2cccc3c2C(=O)N(C2CCC(=O)NC2=O)C3=O)C1 (stereo partly drawn) [Compound 42, (1S,3R,7S,8S,8aR)-8-(2-((2R,4R)-4-hydroxy-6-oxotetrahydro-2H-pyran-2-yl)ethyl)-3,7-dimethyl-1,2,3,7,8,8a-hexahydronaphthalen-1-yl (14-((2-(2,6-dioxopiperidin-3-yl)-1,3-dioxoisoindolin-4-yl)amino)-3,6,9,12-tetraoxatetradecyl)carbamate]",< 50 nM
5,"C[C@H]1C=C2C=C[C@H](C)[C@H](CC[C@@H]3C[C@@H](O)CC(=O)O3)[C@H]2[C@@H](OC(=O)NCCOCCOCCOCCOCCOCCNc2cccc3c2C(=O)N(C2CCC(=O)NC2=O)C3=O)C1 (stereo partly drawn) [Compound 43, (1S,3R,7S,8S,8aR)-8-(2-((2R,4R)-4-hydroxy-6-oxotetrahydro-2H-pyran-2-yl)ethyl)-3,7-dimethyl-1,2,3,7,8,8a-hexahydronaphthalen-1-yl (17-((2-(2,6-dioxopiperidin-3-yl)-1,3-dioxoisoindolin-4-yl)amino)-3,6,9,12,15-pentaoxaheptadecyl)carbamate]",< 50 nM
6,"C[C@H]1C=C2C=C[C@H](C)[C@H](CC[C@@H]3C[C@@H](O)CC(=O)O3)[C@H]2[C@@H](OC(=O)NCCOCCOCCOCCOCCOCCOCCNc2cccc3c2C(=O)N(C2CCC(=O)NC2=O)C3=O)C1 (stereo partly drawn) [Compound 44, (1S,3R,7S,8S,8aR)-8-(2-((2R,4R)-4-hydroxy-6-oxotetrahydro-2H-pyran-2-yl)ethyl)-3,7-dimethyl-1,2,3,7,8,8a-hexahydronaphthalen-1-yl (20-((2-(2,6-dioxopiperidin-3-yl)-1,3-dioxoisoindolin-4-yl)amino)-3,6,9,12,15,18-hexaoxaicosyl)carbamate]",< 50 nM
7,"C[C@H]1C=C2C=C[C@H](C)[C@H](CC[C@@H]3C[C@@H](O[Si](C)(C)C(C)(C)C)CC(=O)O3)[C@H]2[C@@H](OC(=O)NCCOCCOCCOCCNc2ccccc2)C1 [Compound 45, (1S,3R,7S,8S,8aR)-8-(2-((2R,4R)-4-((tert-butyldimethylsilyl)oxy)-6-oxotetrahydro-2H-pyran-2-yl)ethyl)-3,7-dimethyl-1,2,3,7,8,8a-hexahydronaphthalen-1-yl (2-(2-(2-(2-(phenylamino)ethoxy)ethoxy)ethoxy)ethyl)carbamate]",> 500 nM
8,"C[C@H]1C=C2C=C[C@H](C)[C@H](CC[C@@H]3C[C@@H](O[Si](C)(C)C(C)(C)C)CC(=O)O3)[C@H]2[C@@H](OC(=O)NCCOCCOCCNc2cccc3c2C(=O)N(C2CCC(=O)NC2=O)C3=O)C1 (stereo partly drawn) [Compound 46, (1S,3R,7S,8S,8aR)-8-(2-((2R,4R)-4-((tert-butyldimethylsilyl)oxy)-6-oxotetrahydro-2H-pyran-2-yl)ethyl)-3,7-dimethyl-1,2,3,7,8,8a-hexahydronaphthalen-1-yl (2-(2-(2-((2-(2,6-dioxopiperidin-3-yl)-1,3-dioxoisoindolin-4-yl)amino)ethoxy)ethoxy)ethyl)carbamate]",< 50 nM
9,"C[C@H]1C=C2C=C[C@H](C)[C@H](CC[C@@H]3C[C@@H](O[Si](C)(C)C(C)(C)C)CC(=O)O3)[C@H]2[C@@H](OC(=O)NCCOCCOCCOCCNc2cccc3c2C(=O)N(C2CCC(=O)NC2=O)C3=O)C1 (stereo partly drawn) [Compound 47, (1S,3R,7S,8S,8aR)-8-(2-((2R,4R)-4-((tert-butyldimethylsilyl)oxy)-6-oxotetrahydro-2H-pyran-2-yl)ethyl)-3,7-dimethyl-1,2,3,7,8,8a-hexahydronaphthalen-1-yl (2-(2-(2-(2-((2-(2,6-dioxopiperidin-3-yl)-1,3-dioxoisoindolin-4-yl)amino)ethoxy)ethoxy)ethoxy)ethyl)carbamate]",< 50 nM
10,"C[C@H]1C=C2C=C[C@H](C)[C@H](CC[C@@H]3C[C@@H](O[Si](C)(C)C(C)(C)C)CC(=O)O3)[C@H]2[C@@H](OC(=O)NCCOCCOCCOCCOCCNc2cccc3c2C(=O)N(C2CCC(=O)NC2=O)C3=O)C1 (stereo partly drawn) [Compound 48, (1S,3R,7S,8S,8aR)-8-(2-((2R,4R)-4-((tert-butyldimethylsilyl)oxy)-6-oxotetrahydro-2H-pyran-2-yl)ethyl)-3,7-dimethyl-1,2,3,7,8,8a-hexahydronaphthalen-1-yl (14-((2-(2,6-dioxopiperidin-3-yl)-1,3-dioxoisoindolin-4-yl)amino)-3,6,9,12-tetraoxatetradecyl)carbamate]",< 50 nM
11,"C[C@H]1C=C2C=C[C@H](C)[C@H](CC[C@@H]3C[C@@H](O[Si](C)(C)C(C)(C)C)CC(=O)O3)[C@H]2[C@@H](OC(=O)NCCOCCOCCOCCOCCOCCNc2cccc3c2C(=O)N(C2CCC(=O)NC2=O)C3=O)C1 (stereo partly drawn) [Compound 49, (1S,3R,7S,8S,8aR)-8-(2-((2R,4R)-4-((tert-butyldimethylsilyl)oxy)-6-oxotetrahydro-2H-pyran-2-yl)ethyl)-3,7-dimethyl-1,2,3,7,8,8a-hexahydronaphthalen-1-yl (17-((2-(2,6-dioxopiperidin-3-yl)-1,3-dioxoisoindolin-4-yl)amino)-3,6,9,12,15-pentaoxaheptadecyl)carbamate]",< 50 nM
12,"C[C@H]1C=C2C=C[C@H](C)[C@H](CC[C@@H]3C[C@@H](O[Si](C)(C)C(C)(C)C)CC(=O)O3)[C@H]2[C@@H](OC(=O)NCCOCCOCCOCCOCCOCCOCCNc2cccc3c2C(=O)N(C2CCC(=O)NC2=O)C3=O)C1 (stereo partly drawn) [Compound 50, (1S,3R,7S,8S,8aR)-8-(2-((2R,4R)-4-((tert-butyldimethylsilyl)oxy)-6-oxotetrahydro-2H-pyran-2-yl)ethyl)-3,7-dimethyl-1,2,3,7,8,8a-hexahydronaphthalen-1-yl (20-((2-(2,6-dioxopiperidin-3-yl)-1,3-dioxoisoindolin-4-yl)amino)-3,6,9,12,15,18-hexaoxaicosyl)carbamate]",< 50 nM
